Source: ChEMBL document CHEMBL1201862, “PubChem BioAssay data set” (2004)
The source made the active and inactive calls.

Tests used:
[1] = NIH-3T3 fibroblast cytotoxicity, dose response, cytotoxicity control, cell-based, fluorescence, Alamar Blue, secondary assay (AID 2327); type: functional;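 note: NIH-3T3 mouse fibroblasts cultured with fluconazole at 8 µg/mL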
[2] = C. albicans growth with fluconazole, confirmation, fluorescence, retest (AID 2467); type: functional, cell-based
[3] = target: T1, Short transient receptor potential channel 4 (Mus musculus, UniProt Q9QUQ5); assay: mouse TRPC4 channel inhibitors, dose response, cell-based, HEK293 TRPC4/mu-opioid, Fluo-4 calcium (AID 434942); type: functional;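 note: potency of inhibitors blocking the TRPC4 calcium response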
T1 sequence (Q9QUQ5 whole entry): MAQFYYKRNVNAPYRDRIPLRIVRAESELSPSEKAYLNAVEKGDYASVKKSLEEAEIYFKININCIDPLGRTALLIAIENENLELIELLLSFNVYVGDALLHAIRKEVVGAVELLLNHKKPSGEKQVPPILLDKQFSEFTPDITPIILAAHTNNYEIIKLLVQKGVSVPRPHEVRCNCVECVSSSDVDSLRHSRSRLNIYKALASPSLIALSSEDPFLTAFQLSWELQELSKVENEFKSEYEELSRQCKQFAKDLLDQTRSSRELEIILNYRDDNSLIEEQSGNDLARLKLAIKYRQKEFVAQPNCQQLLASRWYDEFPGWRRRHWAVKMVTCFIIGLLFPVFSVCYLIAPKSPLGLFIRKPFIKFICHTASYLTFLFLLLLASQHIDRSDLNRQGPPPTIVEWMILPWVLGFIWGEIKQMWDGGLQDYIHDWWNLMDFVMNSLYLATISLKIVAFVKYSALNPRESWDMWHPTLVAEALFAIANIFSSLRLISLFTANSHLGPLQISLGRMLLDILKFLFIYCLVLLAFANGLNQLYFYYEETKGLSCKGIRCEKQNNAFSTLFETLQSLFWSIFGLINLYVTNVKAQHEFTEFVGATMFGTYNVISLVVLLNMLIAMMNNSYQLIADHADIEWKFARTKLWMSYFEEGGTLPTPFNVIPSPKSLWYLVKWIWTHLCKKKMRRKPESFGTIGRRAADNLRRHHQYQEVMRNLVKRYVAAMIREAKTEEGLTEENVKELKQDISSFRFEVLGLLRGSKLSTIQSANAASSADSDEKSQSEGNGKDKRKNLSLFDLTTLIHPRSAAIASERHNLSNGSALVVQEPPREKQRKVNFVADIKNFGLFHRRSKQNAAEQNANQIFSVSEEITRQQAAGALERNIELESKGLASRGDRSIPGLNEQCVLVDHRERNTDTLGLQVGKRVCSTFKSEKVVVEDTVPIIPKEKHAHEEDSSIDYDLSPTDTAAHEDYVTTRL

[4] = target: T2, Corticotropin-releasing factor receptor 2/Corticotropin-releasing factor-binding protein (Homo sapiens, UniProt P24387+Q13324); assay: Dose Response confirmation of uHTS hits for small molecule antagonists of the CRF-binding protein and CRF-R2 receptor complex.; type: functional; details: read-out: IC50_Mean
T2 sequence (Q13324 whole entry): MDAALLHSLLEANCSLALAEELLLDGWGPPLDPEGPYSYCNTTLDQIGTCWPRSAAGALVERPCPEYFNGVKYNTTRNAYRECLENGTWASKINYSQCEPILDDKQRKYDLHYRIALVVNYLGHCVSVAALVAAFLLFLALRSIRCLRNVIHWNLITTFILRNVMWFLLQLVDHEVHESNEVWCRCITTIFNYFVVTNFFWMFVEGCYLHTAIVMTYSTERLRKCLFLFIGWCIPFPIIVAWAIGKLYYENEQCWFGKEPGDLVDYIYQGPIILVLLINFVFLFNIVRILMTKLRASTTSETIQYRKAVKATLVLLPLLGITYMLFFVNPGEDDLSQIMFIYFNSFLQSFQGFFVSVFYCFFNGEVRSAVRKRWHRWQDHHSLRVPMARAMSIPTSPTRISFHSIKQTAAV
T2 sequence (P24387 whole entry): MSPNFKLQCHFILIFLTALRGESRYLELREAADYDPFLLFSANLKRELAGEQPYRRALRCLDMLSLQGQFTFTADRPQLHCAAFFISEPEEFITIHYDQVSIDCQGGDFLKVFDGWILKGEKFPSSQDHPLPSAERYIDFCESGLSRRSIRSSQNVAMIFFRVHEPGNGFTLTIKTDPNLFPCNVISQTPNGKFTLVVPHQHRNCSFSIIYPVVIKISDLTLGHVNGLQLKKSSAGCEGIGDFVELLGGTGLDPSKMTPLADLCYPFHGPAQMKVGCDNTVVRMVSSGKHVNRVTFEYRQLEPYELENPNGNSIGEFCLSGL

[5] = target: T2, Corticotropin-releasing factor receptor 2/Corticotropin-releasing factor-binding protein; assay: activators of CRF receptor 2 with binding protein – uHTS hits, confirmation (AID 602473); type: functional; details: read-out: EC50_Mean
Protein RecA = target: T3, Protein RecA (Mycobacterium tuberculosis, UniProt P9WHJ3); assay: Fluorescence Cell-Free Homogeneous Dose Retest to Identify Inhibitors of RecA-Intein Splicing Activity. [Related pubchem assays (depositor defined):AID2097, AID2223, AID489010, AID492950]; type: functional
T3 sequence (P9WHJ3 whole entry): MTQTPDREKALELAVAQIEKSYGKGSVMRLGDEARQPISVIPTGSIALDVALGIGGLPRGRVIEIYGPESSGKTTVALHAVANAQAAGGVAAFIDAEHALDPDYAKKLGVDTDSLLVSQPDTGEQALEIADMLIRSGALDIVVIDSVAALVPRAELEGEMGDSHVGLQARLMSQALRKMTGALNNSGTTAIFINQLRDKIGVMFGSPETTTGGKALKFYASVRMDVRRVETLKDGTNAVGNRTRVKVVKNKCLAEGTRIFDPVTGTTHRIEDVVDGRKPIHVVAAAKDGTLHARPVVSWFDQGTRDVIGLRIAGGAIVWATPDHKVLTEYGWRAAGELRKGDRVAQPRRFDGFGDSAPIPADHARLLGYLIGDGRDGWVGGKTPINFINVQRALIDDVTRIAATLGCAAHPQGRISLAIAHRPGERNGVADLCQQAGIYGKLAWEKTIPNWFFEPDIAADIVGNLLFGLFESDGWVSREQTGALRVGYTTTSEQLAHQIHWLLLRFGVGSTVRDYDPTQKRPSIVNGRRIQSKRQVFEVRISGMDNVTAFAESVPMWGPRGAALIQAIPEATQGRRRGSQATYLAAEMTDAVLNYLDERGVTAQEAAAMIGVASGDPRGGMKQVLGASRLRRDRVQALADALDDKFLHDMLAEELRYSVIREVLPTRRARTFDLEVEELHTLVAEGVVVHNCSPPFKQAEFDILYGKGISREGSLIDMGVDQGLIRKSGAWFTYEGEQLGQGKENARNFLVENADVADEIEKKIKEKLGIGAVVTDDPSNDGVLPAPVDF

[6] = growth suppression of PTEN-null colon cells, dose response, cell-based, HCT116 PTEN knockout (AID 1047); type: functional;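 note: HCT116 colon tumor cells with PTEN knocked out; cells exposed to compound for 60 hours before readout; potency for loss of cell viability measured by luminescence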
[7] = target: T4, Replicative DNA helicase DnaB (Mycobacterium tuberculosis, UniProt P9WMR3); assay: DnaB intein splicing inhibitors, dose response, biochemical, cell-free fluorescence (AID 449749); type: functional
T4 sequence (P9WMR3 whole entry): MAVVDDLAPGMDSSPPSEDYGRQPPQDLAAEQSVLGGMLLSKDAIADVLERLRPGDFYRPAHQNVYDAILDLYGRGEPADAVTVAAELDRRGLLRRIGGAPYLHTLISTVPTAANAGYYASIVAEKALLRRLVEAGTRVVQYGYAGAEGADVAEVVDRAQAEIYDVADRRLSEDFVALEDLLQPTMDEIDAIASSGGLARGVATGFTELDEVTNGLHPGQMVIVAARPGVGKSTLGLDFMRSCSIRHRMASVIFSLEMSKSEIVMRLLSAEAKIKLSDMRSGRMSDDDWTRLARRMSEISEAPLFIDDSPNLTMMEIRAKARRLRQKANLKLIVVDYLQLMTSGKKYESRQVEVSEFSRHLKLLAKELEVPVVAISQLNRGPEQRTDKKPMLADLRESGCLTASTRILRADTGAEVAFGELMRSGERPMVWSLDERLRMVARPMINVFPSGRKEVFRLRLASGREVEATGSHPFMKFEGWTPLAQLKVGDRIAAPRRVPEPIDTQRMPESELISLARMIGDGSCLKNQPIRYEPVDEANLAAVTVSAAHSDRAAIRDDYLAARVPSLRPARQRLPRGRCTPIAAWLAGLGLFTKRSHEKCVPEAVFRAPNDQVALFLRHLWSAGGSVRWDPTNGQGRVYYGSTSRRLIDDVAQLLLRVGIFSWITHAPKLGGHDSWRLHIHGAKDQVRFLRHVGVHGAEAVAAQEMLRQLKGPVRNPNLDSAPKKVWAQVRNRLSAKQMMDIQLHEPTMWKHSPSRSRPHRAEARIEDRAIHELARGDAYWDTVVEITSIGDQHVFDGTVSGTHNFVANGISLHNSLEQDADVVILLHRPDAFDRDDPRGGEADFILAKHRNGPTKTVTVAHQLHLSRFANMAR

[8] = growth suppression of beta-catenin-knockout colon cells, dose response, cell-based, HCT116, human colon tumor (AID 1045); type: functional;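 note: HCT116 colon tumor cells with beta catenin knocked out; cells exposed to compound for 60 hours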
Cytochrome P450 2C9 = Cytochrome P450 2C9 (Homo sapiens, UniProt P11712)
Sequence of Cytochrome P450 2C9 (P11712 whole entry): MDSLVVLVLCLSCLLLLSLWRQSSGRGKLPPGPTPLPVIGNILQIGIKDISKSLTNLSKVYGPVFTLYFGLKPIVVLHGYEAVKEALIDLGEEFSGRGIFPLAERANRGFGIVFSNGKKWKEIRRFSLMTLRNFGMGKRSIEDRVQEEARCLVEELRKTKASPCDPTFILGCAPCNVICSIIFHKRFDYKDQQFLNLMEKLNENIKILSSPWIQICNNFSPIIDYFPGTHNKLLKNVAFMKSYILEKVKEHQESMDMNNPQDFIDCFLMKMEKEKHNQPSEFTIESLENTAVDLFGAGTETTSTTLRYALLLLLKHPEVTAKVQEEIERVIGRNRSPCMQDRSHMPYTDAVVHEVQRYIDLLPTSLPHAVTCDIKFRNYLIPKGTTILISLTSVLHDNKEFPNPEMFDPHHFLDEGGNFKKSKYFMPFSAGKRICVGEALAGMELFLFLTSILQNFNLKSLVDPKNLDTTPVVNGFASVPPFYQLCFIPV

CC(C)c1noc2ncc(C(=O)c3cc(Cl)cc(Cl)c3O)cc12
EC50 [1]: > 160 µM (inactive)
EC50 [2]: 3.63 µM (active)

CCOC(=O)c1oc2ccccc2c1CN1CCCCC1
EC50 [3]: 4.22 µM (active)

CN(Cc1cnn(C)c1)C(=O)c1ccc(OC2CCN(CCc3ccccc3)CC2)cc1
EC50 [3]: 1.5 µM (active)

COc1ccc(C(CNc2ccc(C(F)(F)F)cn2)N(C)C)cc1OC (stereo not given)
EC50 [3]: 0.299 µM (active)

CC12CCC(C(=O)NNc3ccc([N+](=O)[O-])cc3)(CC1=O)C2(C)C (stereo not given)
EC50 [1]: > 150 µM (inconclusive)
EC50 [2]: > 38 µM (not active)

COc1ccc(C2NC(C(=O)O)Cc3c2[nH]c2ccccc32)cc1CN1CCN(c2ccc(F)cc2)CC1 (stereo not given)
EC50 [3]: 0.531 µM (active)

Cc1ccc(Cn2c(=N)n(CC(O)c3ccco3)c3ccccc32)cc1 (stereo not given)
EC50 [3]: 1.88 µM (active)

Cc1ccccc1N=C1N=C(S)N(c2ccccc2)C12CCCCC2
IC50 [4]: > 47.1 µM (inactive)
EC50 [5]: > 53 µM (inactive)

CN(C)C(=O)c1ccc2c(c1[N+](=O)[O-])C(=O)c1ccccc1C2=O
EC50 (Protein RecA): 0.558 µM (active)
EC50 [6]: 87 µM (active)
AC50 [7]: 57.9 µM (active)
EC50 [8]: 105 µM (active)

Cc1nn(C)c(C)c1NC(=O)CSc1nc(C2CC2)nc2c1cnn2-c1ccccc1
EC50 [6]: 5.78 µM (active)
EC50 [8]: 10.8 µM (active)

COc1ccc(CCNC(=O)c2cccc3c2C(=O)N(C2CCCCC2)C3)cc1OC
IC50 [4]: 5.54 µM (active)
EC50 [5]: > 53 µM (inactive)

COc1ccc(C(=O)ON=C(N)Cc2ccc(Cl)cc2)cc1OC
EC50 [6]: 21.6 µM (active)
EC50 [8]: 19.1 µM (active)

COc1ccc2c(c1)c(C(=O)O)c(C)n2-c1ccc(Cl)cc1
IC50 [4]: > 47.1 µM (inactive)
EC50 [5]: > 53 µM (inactive)

CCN(CC)C(=O)/C(=C/c1cn(S(=O)(=O)N(C)C)c2ccccc12)NC(=O)c1ccc(OC)cc1
IC50 [4]: > 47.1 µM (inactive)
EC50 [5]: > 53 µM (inactive)

O=C(O)CC(SCC(=O)Nc1ccc(Br)cc1)C(=O)O (stereo not given)
IC50 [4]: > 47.1 µM (inactive)
EC50 [5]: > 53 µM (inactive)

C=CCSc1nc(-c2ccc(OCCC)cc2)n[nH]1
EC50 [1]: > 150 µM (inactive)
EC50 [2]: > 38 µM (not active)

Cc1cc(-c2sccc2C)nc(-n2cccc2)n1
EC50 [3]: 7.5 µM (active)

CC(=O)NC1=NN(C(C)=O)C(C)(c2ccccn2)S1 (stereo not given)
IC50 [4]: > 47.1 µM (inactive)
EC50 [5]: > 53 µM (inactive)

CCOc1cc(-c2nc(-c3cc(OC)c(OC)c(OC)c3)no2)cc(OCC)c1OCC
EC50 [1]: > 160 µM (inactive)
EC50 [2]: > 38 µM (not active)

COc1ccc(CCN=C(N)S)cc1OC
IC50 [4]: > 47.1 µM (inactive)
EC50 [5]: > 53 µM (inactive)

CCCSC(=N)N/N=C/c1ccccc1O
EC50 [6]: 34.7 µM (active)
EC50 [8]: 32.4 µM (active)

COc1cccc(C(=O)C2CCCN(Cc3cccn3-c3ccccn3)C2)c1 (stereo not given)
EC50 [3]: 6.68 µM (active)

Clc1ccc(-n2nnnc2-c2cnc(-c3ccncc3)nc2-c2cccs2)cc1
EC50 [6]: 16.9 µM (active)
EC50 [8]: 21.1 µM (active)

Cc1noc(NS(=O)(=O)c2ccc(NC(=O)CS(=O)(=O)c3ccccc3)cc2)c1C
IC50 [4]: > 47.1 µM (inactive)
EC50 [5]: > 53 µM (inactive)

Cc1sc2nc(CN(Cc3cccs3)C(=O)NC3CCCCC3)[nH]c(=O)c2c1C
IC50 [4]: 16.4 µM (active)
EC50 [5]: > 53 µM (inactive)

CCOC(=O)C1CCN(C2CCN(C(=O)c3oc4c(C)c(C)ccc4c3C)CC2)CC1
EC50 [3]: 4.22 µM (active)

CCn1c(S)nnc1CCNC(=O)c1ccccc1Cl
IC50 [4]: > 47.1 µM (inactive)
AC50 (Cytochrome P450 2C9): 1.58 µM (inconclusive)
EC50 [5]: > 53 µM (inactive)

CCCOc1ccc(Br)cc1/C=N/O
EC50 [3]: 1.68 µM (active)

CC1CCC(NC(=O)c2ccc(/C=C3\Oc4ccccc4N(C)C3=O)cc2)CC1 (stereo not given)
EC50 [6]: 28 µM (active)
EC50 [8]: 26.7 µM (active)

Cc1ccc(C(=O)C=Cc2cccc(C)c2)cc1
IC50 [4]: > 47.1 µM (inactive)
EC50 [5]: > 53 µM (inactive)

Cc1ccc(C[n+]2cc(-c3ccc(Cl)cc3)n3c2CCC3)cc1
EC50 [3]: 2.37 µM (active)
